Measured values from patent US20060128688A1, “Asenapine for the treatment of schizophrenia in a patient with overweight or predisposition for overweight” (priority 2003, published 2006).
“And” between values parts separate entries of the source, which are not always exact repeats. Equal values may be shown once. Read-outs that look alike come from different tables or passages of the source. Each block holds one compound with its values, some of them ahead of it.

Experiments:
[1] = test system: subjects with acute exacerbation of their schizophrenic illness; test: Randomized double blind, fixed-dose 6-week trial: efficacy on disease symptoms (PANSS); format: in vivo, human; conditions: asenapine 5 mg twice a day sublingual, risperidone 3 mg twice daily, 6 weeks, compared with placebo
[2] = among atypical antipsychotics, literature review; cited from earlier work
[3] = All-Subjects-Treated Group, baseline to day 42 or final day of treatment

number of subjects with greater than 10% weight gain from baseline (All-Subjects-Treated Group): 1
subjects with clinically significant weight gain (increase from baseline of ≧7%), % [3]: 4% and 4.3%
subjects with clinically significant weight gain (increase from baseline of ≧7%), % (All-Subjects-Treated Group, baseline to day 42 or final day of treatment, listed as Asenapine): 4.3%
Structure (SMILES): CN1C[C@@H]2c3ccccc3Oc3ccc(Cl)cc3[C@H]2C1 (relative stereo) [asenapine, trans-5-chloro-2-methyl-2,3,3a,12b-tetrahydro-1H-dibenz[2,3:6,7]oxepino[4,5-c]pyrrole]
efficacy in reducing the symptoms of schizophrenia [1]: significantly more effective than placebo
number of subjects (n) with clinically significant decrease of ≧7% from baseline in body weight [3]: 0
number of subjects (n) with clinically significant increase of ≧7% from baseline in body weight [3]: 2
subjects with clinically significant decrease of ≧7% from baseline in body weight, % [3]: 0.0%
increase in body weight from baseline (at end point, group result): 0.5%
other side effects (overall conclusion of the 6-week trial): minimal other side effects

Structure (SMILES): Cc1cc2c(s1)Nc1ccccc1N=C2N1CCN(C)CC1 [olanzapine]
weight gain associated with the drug [2]: largest weight gains

Structure (SMILES): OCCOCCN1CCN(C2=Nc3ccccc3Sc3ccccc32)CC1 [quetiapine]
weight gain associated with the drug [2]: smallest

Structure (SMILES): Cc1nc2n(c(=O)c1CCN1CCC(c3noc4cc(F)ccc34)CC1)CCCC2 [risperidone, reference compound]
efficacy in reducing the symptoms of schizophrenia [1]: significantly more effective than placebo
number of subjects with greater than 10% weight gain from baseline (All-Subjects-Treated Group): 2
number of subjects (n) with clinically significant decrease of ≧7% from baseline in body weight [3]: 1
number of subjects (n) with clinically significant increase of ≧7% from baseline in body weight [3]: 8
weight gain associated with the drug [2]: modest weight changes that are not dose related

Structure (SMILES): O=C1Cc2cc(CCN3CCN(c4nsc5ccccc45)CC3)c(Cl)cc2N1 [ziprasidone]
weight gain associated with the drug [2]: smallest
